According to patent US20170095524A1, “METHODS FOR MODULATING CANCER CELLS AND STEM CELLS” (The Scripps Research Institute, priority 2014, published 2017):

Columns and labels:
LIN28 = assay: Western blot of LIN28 levels in P19 cells treated with IGF1R and calpain inhibitors; assay type: cell-based; conditions: acute treatment (~12 hrs)
Source text: FIGS. 4A-4B show regulation of LIN28 levels by RBM3, IGF1R, and calpain. (A) Western blot showing the effect of RBM3 knock-down (siRNA) on LIN28 levels in P19 cells treated at the neurosphere stage with (or without) retinoic acid (RA) to induce neural differentiation. RBM3 knock-down increases LIN28 and blocks the ability of RA to decrease LIN28. (B) Western blots showing reduction of LIN28 in P19 cells following acute treatment (˜12 hrs) with inhibitors of IGF1R and calpain (each of which increases the expression of the dephosphorylated form of RBM3). […] HDAC is a loading control.
FIGS. 7A-7D show results from additional studies of reducing LIN28 levels via synergistic dual inhibitor strategies. (A & B) Graphs of changes in RBM3 and LIN28 expression in P19 cells treated with the IGF1R inhibitor PPP (10 nM), the calpain inhibitor calpeptin (Cpep, 50 μM), and a combination of PPP plus Cpep (A: n=10-14; B: n=20-24). (C) (top panels) Example of Westerns of LIN28 in P19 cells exposed to PPP, Cpep, and PPP+Cpep; (bottom panels) Example of Westerns of LIN28 and RBM3 in samples from P19 cells treated in triplicate with control and Cpep+PPP conditions. (D) Fold change in let-7 family miRNAs and miR-21 in P19 cells treated with PPP+Cpep as measured by qRT-PCR (n=4). All treatments were for 36 hours. […]

RBM3 = assay: 2D Western blot of RBM3 phosphorylation forms in P19 cells after calpain inhibition; assay type: cell-based
Source text: (Top) 2D Western blot of RBM3 in vehicle-treated (DMSO) P19 cells. Red arrows point to exogenously expressed mutant of RBM3 (A4F) with 4 C-term Y to F mutations, and to two phosphorylated endogenous isoforms of RBM3 that differ by a single arginine (Arg). […] A basic spot not present in the control condition appears that corresponds to the pI of dephosphorylated Arg+RBM3, the form of RBM3 that preferentially associates with pre-miRNAs. We further observed that calpain inhibition rescues expression of dephosphorylated RBM3 in pluripotent cells. Calpains are Ca^++-activated cysteine proteases that regulate diverse cellular processes. Calpain's role in pluripotent and cancerous cells prompted us to test whether it regulates the expression of the dephosphorylated form of RBM3 in pluripotent cells (and accounts for the difficulty in expressing non-phosphorylatable mutants in these cells).

CCCC[C@@H](C=O)NC(=O)[C@H](CC(C)C)NC(=O)OCc1ccccc1 [calpeptin]
LIN28 levels (Western blot) (LIN28; Cpep 50 μM): reduces LIN28 levels
RBM3 pI distribution (2D Western); basic spot corresponding to dephosphorylated Arg+RBM3 appears (RBM3; P19 cells incubated with calpain inhibitor vs DMSO vehicle): shift in RBM3 pI distribution
levels of a non-phosphorylatable mutant of RBM3 (RBM3; pluripotent P19 cells): increased
levels of the endogenous dephosphorylated form of RBM3 that binds pre-miRNAs (dephos Arg+) (RBM3; pluripotent P19 cells): increased

COc1cc([C@@H]2c3cc4c(cc3[C@H](O)[C@H]3COC(=O)[C@@H]23)OCO4)cc(OC)c1OC [picropodophyllin]
LIN28 levels (Western blot) (LIN28; PPP 10 nM): reduces LIN28 levels
